Key:
SOD1-G93A mice [1] = conditions: SOD1 mouse model; cited from earlier work
[2] = test system: Ly6C^hi inflammatory monocytes in SOD1-G93A mice; assay: Fraction of inflammatory monocytes in SOD1 mice (flow cytometry of blood); format: in vivo, mouse; conditions: 50 mg/kg oral gavage every 3 days from Day 70 until Day 90
From the text: The SOD1-G93A transgenic mouse has proven to be a useful tool in the study of ALS. A large majority of […] in the Superoxide dismutase 1 gene. SOD1-G93A mice express human SOD1 with the G93A mutation under control of the human SOD1 promoter. The mice show a phenotype similar to Amyotrophic Lateral Sclerosis in humans. 60-day old transgenic mice overexpressing the human SOD1-G93A ALS-causing mutation (stock #002726) and wild-type mice (WT; C57BL/6J) were obtained from the Jackson Labs. Oral dosing by gavage started at 70 days of age. SOD1 mice received either TQS-168 50 mg/kg every 3 days or vehicle (same volume and frequency). The staff that dosed and assessed the mice were blinded to treatment allocation. Blood samples were collected in EDTA tubes at 2 time points: 90 days of age and time of euthanasia. Blood samples were processed for flow cytometry and plasma cytokine analysis. Flow cytometry methods employed are the same as those employed in Example 1 and Example 2.

[3] = Plasma levels of TQS-168 after a single oral dose in wild-type mice; format: in vivo, mouse; conditions: single 50 mg/kg dose
Protocol: FIG. 2A plots plasma concentration of TQS-168 over time after a single oral dose of […] TQS-168 in mice. FIG. 2B is a timeline representative of the protocol of the SOD1 mouse study. Plasma levels of TQS-168 in wild-type mice were analyzed subsequently to a single 50 mg/kg dose of TQS-168.

CD14+CD16+ monocytes = assay: Four-hour ex vivo incubation of whole blood of ALS patients, FACS of CD14+CD16+ monocytes; format: cell-based, human; conditions: 4-hour ex vivo incubation
Protocol: Whole blood samples from patients with ALS were shipped at room temperature. The percentage of CD14+CD16+ monocytes were determined by fluorescence activated cell sorting (FACS). Briefly, whole blood was lysed with lysis buffer (BD Bioscience) for 10 minutes at 37° C. Lysed blood was centrifuged at 500 g for 10 min. Supernatant was decanted and the cell pellet washed with HBSS (Hank's balanced salt solution). Cells were centrifuged at 300 g for 10 min. Cells were resuspended in FACS buffer (PBS+2% FBS[…]). Fixed cells (100 μL) were washed with PBS. Cells (100 μL) were resuspended in PBS containing Zombie Aqua (Biolegend; 1:500 dilution). Cells were incubated in the dark at room temperature for 5 minutes. Cells were washed with FACS buffer. Cells were stained with 5 μL CD16 and 5 μL CD14 antibodies (BD Bioscience). Cells were incubated with antibodies for 30 minutes. Cells were washed with FACS buffer. Cells were resuspended in FACS buffer. Cells were acquired on a flow cytometer. FIG. 5B outlines the experimental protocol for assessing the effects of ex vivo incubation with TQS-168 on the inflammatory phenotype of circulating myeloid cells in peripheral blood samples of ALS patients. Samples were obtained from iSpecimen (Lexington, MA) and BioIVT (Westbury, NY). Blood samples were processed within 36 hours of collection and were never frozen. […]

[4] = test system: Ly6C^hi inflammatory monocytes; assay: Ex vivo LPS stimulation of wild-type mouse whole blood, FACS of Ly6C^hi cells; format: cell-based; conditions: LPS stimulated, increasing concentrations of TQS-168, 5 hours at 37° C.
Protocol: Lipopolysaccharide (LPS) was used to induce circulating myeloid cells from wild type mice to adopt an inflammatory phenotype in vitro. […] As schematized in FIG. 1C, blood samples from wild-type mice were collected in EDTA tubes and stimulated with LPS. Whole blood was incubated at 37° C. with increasing concentrations of TQS-168 for 5 hours. Whole blood was lysed with lysis buffer from BD Bioscience for 10 minutes at 37C. Lysed blood was centrifuged at 500 g for 10 minutes. The supernatant was decanted, and cell pellet washed with Hank's balanced salt solution (HBSS). The cells were then centrifuged at 300 g for 10 minutes. They were subsequently resuspended in 2 mM EDTA FACS buffer. Fixed cells (100 μL) were washed with PBS. The cells (100 μL) were resuspended in PBS containing Zombie Aqua solution (Biolegend) at a 1:500 dilution. The cells were incubated in the dark at room temperature for 5 minutes. The cells were then washed with FACS buffer. The cells were stained with Cd11b, Ly6G, and Ly6C antibodies (BD Bioscience). The cells were then incubated with antibodies for 30 minutes. They were then washed with FACS buffer and then resuspended also in FACS buffer. Finally, the cells were acquired on flow cytometer.

[5] = test system: plasma cytokines (IL-6, IL-10, TNFα, interferon gamma, CXCL5, etc.); assay: Plasma cytokines in SOD1 mice (48-plex Procarta panel); format: in vivo, mouse; conditions: 50 mg/kg oral gavage every 3 days from Day 70 until day of euthanasia
Protocol: 60-day old transgenic mice overexpressing the human SOD1-G93A ALS-causing mutation (stock #002726) and wild-type mice (WT; C57BL/6J) were obtained from the Jackson Labs. Oral dosing by gavage started at 70 days of age. SOD1 mice received either TQS-168 50 mg/kg every 3 days or vehicle (same volume and frequency). The staff that dosed and assessed the mice were blinded to treatment allocation. Blood samples were collected in EDTA tubes at 2 time points: 90 days of age and time of euthanasia. Blood samples were processed for flow cytometry and plasma cytokine analysis. Flow cytometry methods employed are the same as those employed in Example 1 and Example 2.
Blood samples were collected from SOD1 mice at Day 90 and time of euthanasia. Plasma samples were assayed using the 48-plex Procarta panel (Thermo Fisher).

SOD1-G93A mice [6] = assay: Survival in SOD1 mice (time from birth to euthanasia, righting reflex); format: in vivo, mouse
Protocol: 60-day old transgenic mice overexpressing the human SOD1-G93A ALS-causing mutation (stock #002726) were obtained from the Jackson Labs. Dosing started at 70 days of age. SOD1 mice received either TQS-168 50 mg/kg every 3 days or vehicle (same volume and frequency) by oral gavage. The righting reflex (ability to turn over when place on their backs) was assessed every 3 days when mice were <110 days old and every day after age 110 days. Mice were euthanized if they could not right themselves in 20 seconds after being placed onto their back. Time from birth to euthanasia was calculated for each mouse and compared in the two groups.

[7] = test system: Ppargc1α (PGC-1α) expression; conditions: direct molecular binding partner unknown; cited from earlier work

CC1=NN(c2ccccc2)C(=O)C1 [edaravone]
survival benefit in the SOD1 model (approved ALS treatments) (SOD1-G93A mice [1]): failed to display survival benefits

CC(C)(C)c1ccc(-c2nc3ccccc3[nH]2)cc1 [TQS-168, 2-(4-tert-butylphenyl)-1H-benzimidazole]
increase in circulating Ly6C^hi monocytes in SOD1 mice [2]: inhibited the increase in circulating Ly6C^hi monocytes
oral bioavailability (plasma levels) [3]: orally bioavailable
percentage of CD14+CD16+ monocytes after incubation (CD14+CD16+ monocytes; 30 μM, from 1.5% without compound): less than 1%
change in percentage of intermediate (CD14+CD16+) monocytes with increasing concentrations (CD14+CD16+ monocytes): dose-dependent decrease
LPS-induced increase in percentage of Ly6C^hi inflammatory monocytes [4]: inhibits the LPS-induced increase in Ly6C^hi monocytes
increase in plasma cytokines from Day 90 to day of euthanasia [5]: inhibited this increase in plasma cytokines
survival compared with vehicle (SOD1-G93A mice [6]; 50 mg/kg oral gavage every 3 days): survived longer
median survival (SOD1-G93A mice [6]; 50 mg/kg oral gavage every 3 days from 70 days of age): 135 days
difference in median survival versus vehicle (SOD1-G93A mice [6]; 50 mg/kg oral gavage every 3 days, vehicle 129): 6 days
effect on Ppargc1α (PGC-1α) expression [7]: activator of Ppargc1α (PGC-1α) expression
